In PubChem BioAssay (NCI) one finds TGI data, which are given here for 12 compounds.

Among the test systems are OVCAR-8 ovarian; U251 CNS; MDA-N; HCT-116 colon; UACC-62 melanoma; IGROV1 ovarian; MDA-MB-231 breast; NCI-H460 lung; PC-3 prostate; UO-31 renal.
What all share (assay): inhibition of tumour cell growth, NCI panel, 48 h

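Cultured in 96-well plates, cells were exposed to test compound for 48 hours across five concentrations. TGI: concentration producing complete growth inhibition.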

Turning to `CN(C)CCOc1ccc(-c2c(Oc3ccccc3)c(=O)oc3ccccc23)cc1`, the TGI with OVCAR-8 ovarian turned out to be 29.6 µM; in the assay on U251 CNS it was 17.3 µM; in the assay with MDA-N, 4.7 µM; with HCT-116 colon, 15.5 µM; in the assay with UACC-62 melanoma, 27.2 µM; in the assay with IGROV1 ovarian it was 25.2 µM. Moreover, the TGI was determined as 18.8 µM in the assay with MDA-MB-231 breast, 29 µM in the assay with NCI-H460 lung, 23.1 µM in the assay on PC-3 prostate and 19.9 µM in the assay with UO-31 renal.
As to `COC(=O)C1=C(O)CCCC(C2CCCCC(=O)C2C(=O)OC)=C1` (stereo not given), the TGI is greater than 100 µM with OVCAR-8 ovarian; greater than 100 µM in the assay with U251 CNS; greater than 100 µM with MDA-N; greater than 100 µM in the assay with HCT-116 colon; 42.3 µM with UACC-62 melanoma; greater than 100 µM with IGROV1 ovarian. Besides, the TGI is greater than 100 µM in the assay with MDA-MB-231 breast, 39.6 µM in the assay with NCI-H460 lung, greater than 100 µM with PC-3 prostate and greater than 100 µM in the assay on UO-31 renal.
As for `CC1SC2(CCCCC2)N(NC(=O)CSc2nc3ccc(Cl)cc3c(=O)n2-c2ccccc2)C1=O` (stereo not given), the TGI turned out to be 59.1 µM in the assay on OVCAR-8 ovarian; 31.6 µM in the assay with U251 CNS; 36.2 µM with MDA-N; 27.2 µM in the assay on HCT-116 colon; 37.5 µM with UACC-62 melanoma; 39.4 µM in the assay with IGROV1 ovarian. In addition, the TGI amounted to 35 µM in the assay with MDA-MB-231 breast, 42.7 µM in the assay with NCI-H460 lung, 56.1 µM with PC-3 prostate and 40.4 µM with UO-31 renal.
For the compound `CC(=O)C(C(C)=O)[C@@H]1OC(C)(C)O[C@@H]1[C@H]1COC(C)(C)O1`, the TGI with OVCAR-8 ovarian was greater than 100 µM; in the assay with U251 CNS, greater than 100 µM; with MDA-N it was 70.1 µM; in the assay with HCT-116 colon, greater than 100 µM; in the assay with UACC-62 melanoma, greater than 100 µM; with IGROV1 ovarian it was greater than 100 µM. In addition, the TGI in the assay on MDA-MB-231 breast, in the assay with NCI-H460 lung, with PC-3 prostate and with UO-31 renal was greater than 100 µM in each case.
Consider `N#Cc1cc(Sc2ccc(N)c(C#N)c2)ccc1N`, for which the TGI with OVCAR-8 ovarian is 55.2 µM; with U251 CNS, greater than 100 µM; in the assay on MDA-N, 24.2 µM; in the assay with HCT-116 colon, 34.4 µM; with UACC-62 melanoma it was greater than 100 µM; in the assay on IGROV1 ovarian, greater than 100 µM. Moreover, the TGI was greater than 100 µM with MDA-MB-231 breast, 31.1 µM in the assay with NCI-H460 lung, greater than 100 µM with PC-3 prostate and greater than 100 µM in the assay on UO-31 renal.
As to `Cn1c2ccccc2c2cc(N3CCCC3)c3c(c21)C(=O)N(c1ccccc1)C3=O`, the TGI in the assay on OVCAR-8 ovarian, in the assay on U251 CNS, with MDA-N, in the assay on HCT-116 colon, in the assay with UACC-62 melanoma and with IGROV1 ovarian was greater than 100 µM in each case. Further, the TGI in the assay on MDA-MB-231 breast, in the assay with NCI-H460 lung, in the assay with PC-3 prostate and in the assay with UO-31 renal was greater than 100 µM each time.
In the case of `N/C(=N\Nc1ccc(Cl)cc1)c1cnccn1`, the TGI in the assay with OVCAR-8 ovarian, in the assay with U251 CNS, in the assay on MDA-N, in the assay with HCT-116 colon, in the assay with UACC-62 melanoma and with IGROV1 ovarian was greater than 100 µM in each case. Also, the TGI with MDA-MB-231 breast, with NCI-H460 lung, in the assay with PC-3 prostate and in the assay with UO-31 renal was greater than 100 µM throughout.
Consider `O=c1c2cnccc2cc2c3ccccc3ccn12`, for which the TGI is greater than 100 µM with OVCAR-8 ovarian; greater than 100 µM in the assay on U251 CNS; greater than 100 µM in the assay on MDA-N; greater than 100 µM in the assay with HCT-116 colon; greater than 100 µM in the assay with UACC-62 melanoma; 33.3 µM with IGROV1 ovarian. Further, the TGI with MDA-MB-231 breast, in the assay with NCI-H460 lung, in the assay with PC-3 prostate and in the assay on UO-31 renal was greater than 100 µM throughout.
Turning to `CCCCc1ccc(Nc2nc(Cl)c3c(ncn3C3CC(Oc4ccc(C)cc4)C(COc4ccc(C)cc4)O3)n2)cc1` (stereo not given), the TGI in the assay with OVCAR-8 ovarian, with U251 CNS, in the assay on MDA-N, in the assay with HCT-116 colon, in the assay on UACC-62 melanoma and with IGROV1 ovarian was greater than 100 µM each time. Moreover, the TGI in the assay with MDA-MB-231 breast, with NCI-H460 lung, with PC-3 prostate and in the assay on UO-31 renal was greater than 100 µM throughout.
As to `CC(=O)O[C@H]1C(=O)[C@@]2(C)[C@H]([C@H](OC(=O)c3ccccc3)[C@]3(O)C[C@H](OC(=O)[C@H](O)[C@@H](NC(=O)c4ccccc4)c4cccc(N(C)C)c4)C(C)=C1C3(C)C)[C@]1(OC(C)=O)CO[C@@H]1C[C@@H]2O`, the TGI is greater than 27.4 µM with OVCAR-8 ovarian; greater than 27 µM with U251 CNS; 0.0238 µM in the assay on MDA-N; greater than 61.4 µM in the assay on HCT-116 colon; greater than 50.2 µM with UACC-62 melanoma; greater than 75 µM with IGROV1 ovarian. Moreover, the TGI in the assay with MDA-MB-231 breast is 36.1 µM; in the assay on NCI-H460 lung it was 27.5 µM; in the assay with PC-3 prostate, 12.4 µM; in the assay with UO-31 renal, greater than 64.6 µM.
Turning to `COc1ccc(-c2ncn(C[Si](C)(C)C)c2-c2ccc(OC)cc2)cc1`, the TGI in the assay on OVCAR-8 ovarian was determined as 31.4 µM; in the assay with U251 CNS, 20.7 µM; with MDA-N, 10.9 µM; with HCT-116 colon, 13 µM; in the assay on UACC-62 melanoma, 10.2 µM; in the assay with IGROV1 ovarian, 23.1 µM. For the same compound, the TGI with MDA-MB-231 breast worked out at 27.6 µM; with NCI-H460 lung it was 15.3 µM; in the assay with PC-3 prostate, 16.9 µM; in the assay on UO-31 renal it was 10 µM.
With `Cc1cc(Nc2ccc(NS(C)(=O)=O)cc2)c2c(ccc3nccc32)[nH]1`, the TGI in the assay on OVCAR-8 ovarian was greater than 100 µM; in the assay with U251 CNS, 29 µM; in the assay with MDA-N, 31.5 µM; in the assay with HCT-116 colon it was 37.9 µM; with UACC-62 melanoma, 30.7 µM; in the assay with IGROV1 ovarian it was 86.3 µM. Moreover, the TGI in the assay with MDA-MB-231 breast was 33.4 µM; in the assay with NCI-H460 lung, 46.5 µM; with PC-3 prostate it was 39.7 µM; in the assay on UO-31 renal it was greater than 100 µM.
